# Results published in US5516790A, “Synthesis and application of alkyl-substituted dibenzofurans as antitumorigenic agents” (Texas A&M University System Technology Licensing Office, priority 1994, dated 1996).
# Where two headings read alike, the source gives them in different places.
# Experiments:
# uterus [1] = assay: Uterine wet weight / uterotrophic effects (literature, summary); format: in vivo, rat; details: rats, in comparison to control
# estrogen receptor (ER) [2] = format: in vivo, female Sprague/Dawley rats
# Method: (§1) TCDD or MCDF was co-administered with a second dose of estradiol and the animals were killed 48-hours later. A second group of animals was similarly treated with corn oil, TCDD, MCDF, or TCDD plus MCDF, all administered in corn oil at 10 ml/kg and terminated 72 hours later.
# (§2) The animals were terminated by cervical dislocation. Livers were perfused with ice-cold TEDG buffer (10 mM Tris-HCl, 1.5 mM EDTA-4Na, 1 mM dithiothreitol, 10% glycerol (v/v), pH 7.4). Following perfusion in situ, livers were removed, weighed, and homogenized in ice-cold TEDG buffer. Uteri were also removed, weighed, and homogenized in ice-cold buffer. The homogenates were then centrifuged at 800×g […] for 15 minutes and the nuclear pellets were stored at -80° C. The supernatants were further centrifuged at 180,000×g for 1.5 hour. The cytosolic supernatant was also stored at -80° C. Estrogen and progesterone receptor levels were determined within 7 days.
# (§3) Estrogen and progesterone receptor levels were determined by the hydroxyapatite assay as described by Clark et al. (J. Steroid, Biochem., 16, 323-328 (1982)). […] Following the incubations, samples were counted and specific binding was calculated by subtraction of nonspecific from total binding. Assuming one steroid molecule binds to one estrogen/progesterone receptor, the number of moles of receptor can be calculated given the specific activity of the radioligand. […] Significant differences were determined by ANOVA.
# [3] = test system: progesterone receptor (PR); format: in vivo, female Sprague/Dawley rats
# Method: as §1, §2, §3
# Ah receptor = assay: Binding affinity for the Ah receptor
# estrogen receptor (ER) [4] = assay: Uterine estrogen receptor levels, hydroxyapatite assay (Example 8); format: in vivo, female Sprague-Dawley rats; details: run A
# estrogen receptor [5] = assay: Uterine and hepatic estrogen receptor levels (literature); format: in vivo, rat; details: in comparison to control test animals, rats and mice
# 34-kDa protein = details: Biegel and Safe, 1990; cited from earlier work
# 52-kDa protein = details: Biegel and Safe, 1990; cited from earlier work
# AHH and EROD induction = details: previous studies; cited from earlier work
# uterus [6] = details: cited from earlier work
# uterus [7] = assay: Uterine wet weights in mice (summary); format: in vivo; details: in comparison to control
# female rat uterus = assay: Antiestrogenic effect on uterine wet weight, immature female Sprague-Dawley rats (Example 8); format: in vivo; details: run A
# [8] = test system: MCF-7 human breast cancer cells; assay: Growth of MCF-7 human breast cancer cells; format: cell-based; details: MCDF
# EGF receptor = details: cited from earlier work
# Toxicity = details: in vivo
# [9] = test system: mammary and uterine tumors; details: long term feeding studies; cited from earlier work
# [10] = in vivo; cited from earlier work
# estrogen receptor [11] = details: cited from earlier work
# uterus [12] = details: weanling female C57BL/6 mice; cited from earlier work
# MDA-MB-231 cell line = details: cited from earlier work
# [13] = 150 μmol/kg + E-2 (2 × 10 μg/rat)
# [14] = compound alone, 150 μmol/kg (17β-estradiol: 2 × 10 μg/rat)
# [15] = Table 11, compound alone: TCDD 0.256 or MCDF 100 μmol/kg, or estradiol
structure (smiles),measurement,setting,value
"Cc1cc(Cl)cc2c1oc1cc(Cl)cc(Cl)c12 [MCDF, 6-methyl 1,3,8-trichlorodibenzofuran]",uterine wet weights,uterus [1],decreases
same,Hepatic ERc,estrogen receptor (ER) [2]; MCDF 10 μmol/kg,6.6 ± 0.5 fmol/mg protein
same,Hepatic ERn,estrogen receptor (ER) [2]; MCDF 10 μmol/kg,6.1 ± 1.0 fmol/mg protein
same,Uterine ERc,estrogen receptor (ER) [2]; MCDF 10 μmol/kg,137.7 ± 11.6 fmol/mg protein
same,Uterine ERn,estrogen receptor (ER) [2]; MCDF 10 μmol/kg,15.8 ± 1.9 fmol/mg protein
same,Hepatic ERc,estrogen receptor (ER) [2]; MCDF 50 μmol/kg,4.6 ± 0.8 fmol/mg protein
same,Hepatic ERn,estrogen receptor (ER) [2]; MCDF 50 μmol/kg,3.5 ± 0.6 fmol/mg protein
same,Uterine ERc,estrogen receptor (ER) [2]; MCDF 50 μmol/kg,110.3 ± 6.6 fmol/mg protein
same,Uterine ERn,estrogen receptor (ER) [2]; MCDF 50 μmol/kg,13.2 ± 2.1 fmol/mg protein
same,Hepatic ERc,estrogen receptor (ER) [2]; MCDF 100 μmol/kg,3.1 ± 0.3 fmol/mg protein
same,Hepatic ERn,estrogen receptor (ER) [2]; MCDF 100 μmol/kg,3.1 ± 0.7 fmol/mg protein
same,Uterine ERc,estrogen receptor (ER) [2]; MCDF 100 μmol/kg,90.2 ± 11.2 fmol/mg protein
same,Uterine ERn,estrogen receptor (ER) [2]; MCDF 100 μmol/kg,11.5 ± 1.0 fmol/mg protein
same,constitutive uterine hepatic estrogen receptors,estrogen receptor (ER) [2]; MCDF 50 and 100 μmol/kg,dose dependent decrease
same,Hepatic ERc,"estrogen receptor (ER) [2]; Table 11, cotreatment with E-2",8.1 ± 1.2 fmol/mg protein
same,Hepatic ERn,"estrogen receptor (ER) [2]; Table 11, cotreatment with E-2",3.6 ± 0.9 fmol/mg protein
same,Uterine ERc,"estrogen receptor (ER) [2]; Table 11, cotreatment with E-2",93.5 ± 4.0 fmol/mg protein
same,Uterine ERn,"estrogen receptor (ER) [2]; Table 11, cotreatment with E-2",18.5 ± 1.2 fmol/mg protein
same,Hepatic ERc,"estrogen receptor (ER) [2]; rat, in vivo",3.7 ± 1.1
same,Hepatic ERn,"estrogen receptor (ER) [2]; rat, in vivo",3.1 ± 0.2
same,Uterine ERc,"estrogen receptor (ER) [2]; rat, in vivo",67.8 ± 2.5
same,Uterine ERn,"estrogen receptor (ER) [2]; rat, in vivo",13.0 ± 1.1
same,"uterine and hepatic estrogen receptors and progesterone receptor levels, of corresponding levels with 17β-estradiol alone (1st of four values)","estrogen receptor (ER) [2]; rat, in vivo",43%
same,"uterine and hepatic estrogen receptors and progesterone receptor levels, of corresponding levels with 17β-estradiol alone (2nd of four values)","estrogen receptor (ER) [2]; rat, in vivo",59%
same,Hepatic PRc,[3]; MCDF 10 μmol/kg,74.3 ± 8.1 fmol/mg protein
same,Hepatic PRn,[3]; MCDF 10 μmol/kg,8.9 ± 1.5 fmol/mg protein
same,Uterine PRc,[3]; MCDF 10 μmol/kg,980 ± 34.6 fmol/mg protein
same,Uterine PRn,[3]; MCDF 10 μmol/kg,390 ± 31.6 fmol/mg protein
same,Hepatic PRc,[3]; MCDF 50 μmol/kg,66.0 ± 7.1 fmol/mg protein
same,Hepatic PRn,[3]; MCDF 50 μmol/kg,7.6 ± 1.0 fmol/mg protein
same,Uterine PRc,[3]; MCDF 50 μmol/kg,886 ± 20.1 fmol/mg protein
same,Uterine PRn,[3]; MCDF 50 μmol/kg,290 ± 30.2 fmol/mg protein
same,Hepatic PRc,[3]; MCDF 100 μmol/kg,40.2 ± 3.2 fmol/mg protein
same,Hepatic PRn,[3]; MCDF 100 μmol/kg,6.8 ± 1.0 fmol/mg protein
same,Uterine PRc,[3]; MCDF 100 μmol/kg,811 ± 26.4 fmol/mg protein
same,Uterine PRn,[3]; MCDF 100 μmol/kg,240 ± 26.1 fmol/mg protein
same,constitutive uterine hepatic progesterone receptor levels,[3]; MCDF 50 and 100 μmol/kg,dose dependent decrease
same,Hepatic PRc,"[3]; Table 11, cotreatment with E-2",108.9 ± 11.1 fmol/mg protein
same,Hepatic PRn,"[3]; Table 11, cotreatment with E-2",6.4 ± 1.0 fmol/mg protein
same,Uterine PRc,"[3]; Table 11, cotreatment with E-2",941.2 ± 45.1 fmol/mg protein
same,Uterine PRn,"[3]; Table 11, cotreatment with E-2",602 ± 11.4 fmol/mg protein
same,Hepatic PRc,"[3]; rat, in vivo",60.6 ± 8.4 fmol/mg protein
same,Hepatic PRn,"[3]; rat, in vivo",5.1 ± 1.0 fmol/mg protein
same,Uterine PRc,"[3]; rat, in vivo",805.3 ± 29.0 fmol/mg protein
same,Uterine PRn,"[3]; rat, in vivo",205 ± 10.6 fmol/mg protein
same,"uterine and hepatic estrogen receptors and progesterone receptor levels, of corresponding levels with 17β-estradiol alone (3rd of four values)","[3]; rat, in vivo",36%
same,"uterine and hepatic estrogen receptors and progesterone receptor levels, of corresponding levels with 17β-estradiol alone (4th of four values)","[3]; rat, in vivo",75%
same,Ah receptor binding activity,Ah receptor,relatively high
same,"Estrogen Receptor Levels, Cytosolic",estrogen receptor (ER) [4]; [13],78.9 ± 79.1 fmol/mg protein
same,"Estrogen Receptor Levels, Nuclear",estrogen receptor (ER) [4]; [13],43.3 ± 73.4 fmol/mg protein
same,"Estrogen Receptor Levels, Cytosolic",estrogen receptor (ER) [4]; [14],55.1 ± 0.9 fmol/mg protein
same,"Estrogen Receptor Levels, Nuclear",estrogen receptor (ER) [4]; [14],49.3 ± 10.2 fmol/mg protein
same,nuclear and cytosolic hepatic and uterine estrogen receptors,estrogen receptor [5],decreases
same,17β-estradiol-induced secretion of the 34-kDa protein,34-kDa protein,inhibits
same,17β-estradiol-induced secretion of the 52-kDa protein,52-kDa protein,inhibits
same,antagonist to the activities of TCDD,AHH and EROD induction,antagonist
same,17β-estradiol-induced increases in rat uterine wet weight,uterus [6],active as an antiestrogen
same,uterotrophic effects of 17β-estradiol,"uterus [6]; rat, in vivo",inhibits
same,uterine wet weights,uterus [7],decreases
same,Uterine Wet Weight,female rat uterus; [13],0.194 ± 0.023 % body wt
same,Uterine Wet Weight,female rat uterus; [14],0.104 ± 0.004 % body wt
same,17β-estradiol-induced growth of MCF-7 cells,[8],inhibits
same,17β-estradiol-induced increased EGF receptor binding and mRNA levels,EGF receptor,inhibits
same,toxicity,Toxicity,low toxicity
same,toxicity of amounts giving antiestrogenic effects,Toxicity,nontoxic
"Clc1cc2c(cc1Cl)Oc1cc(Cl)c(Cl)cc1O2 [TCDD, 2,3,7,8-tetrachloridibenzo-p-dioxin]",Hepatic ERc,estrogen receptor (ER) [2]; TCDD 0.256 μmol/kg,1.7 ± 0.3 fmol/mg protein
same,Hepatic ERn,estrogen receptor (ER) [2]; TCDD 0.256 μmol/kg,2.3 ± 0.6 fmol/mg protein
same,Uterine ERc,estrogen receptor (ER) [2]; TCDD 0.256 μmol/kg,92.1 ± 8.2 fmol/mg protein
same,Uterine ERn,estrogen receptor (ER) [2]; TCDD 0.256 μmol/kg,10.6 ± 0.6 fmol/mg protein
same,Hepatic ERc,estrogen receptor (ER) [2]; [15],2.2 ± 0.8 fmol/mg protein
same,Hepatic ERn,estrogen receptor (ER) [2]; [15],2.4 ± 0.4 fmol/mg protein
same,Uterine ERc,estrogen receptor (ER) [2]; [15],57.8 ± 6.3 fmol/mg protein
same,Uterine ERn,estrogen receptor (ER) [2]; [15],11.7 ± 0.8 fmol/mg protein
same,Hepatic ERc,"estrogen receptor (ER) [2]; Table 11, cotreatment with E-2",6.8 ± 1.0 fmol/mg protein
same,Hepatic ERn,"estrogen receptor (ER) [2]; Table 11, cotreatment with E-2",4.0 ± 0.8 fmol/mg protein
same,Uterine ERc,"estrogen receptor (ER) [2]; Table 11, cotreatment with E-2",82.8 ± 5.4 fmol/mg protein
same,Uterine ERn,"estrogen receptor (ER) [2]; Table 11, cotreatment with E-2",17.4 ± 1.0 fmol/mg protein
same,Hepatic PRc,[3]; TCDD 0.256 μmol/kg,38.3 ± 3.9 fmol/mg protein
same,Hepatic PRn,[3]; TCDD 0.256 μmol/kg,5.9 ± 1.1 fmol/mg protein
same,Uterine PRc,[3]; TCDD 0.256 μmol/kg,82 ± 30.2 fmol/mg protein
same,Uterine PRn,[3]; TCDD 0.256 μmol/kg,190 ± 14.2 fmol/mg protein
same,Hepatic PRc,[3]; [15],61.9 ± 7.3 fmol/mg protein
same,Hepatic PRn,[3]; [15],5.9 ± 0.4 fmol/mg protein
same,Uterine PRc,[3]; [15],898.0 ± 49.2 fmol/mg protein
same,Uterine PRn,[3]; [15],180 ± 9.9 fmol/mg protein
same,Hepatic PRc,"[3]; Table 11, cotreatment with E-2",110.3 ± 8.3 fmol/mg protein
same,Hepatic PRn,"[3]; Table 11, cotreatment with E-2",6.8 ± 1.3 fmol/mg protein
same,Uterine PRc,"[3]; Table 11, cotreatment with E-2",811.3 ± 27.1 fmol/mg protein
same,Uterine PRn,"[3]; Table 11, cotreatment with E-2",511 ± 19.3 fmol/mg protein
same,spontaneous development of mammary and uterine tumors,[9],significantly decreased
same,hepatocarcinogenicity,[10],so hepatocarcinogenic
same,binding to the estrogen receptor,estrogen receptor [11],does not bind
same,uterine weights,uterus [12],decreased
same,"secretion of the 34-, 52- and 160-kDa proteins",MDA-MB-231 cell line; TCDD plus 17β-estradiol,did not affect
same,"secretion of the 34-, 52- and 160-kDa proteins",MDA-MB-231 cell line; compound alone,did not affect
